Results reported in patent publication US20230085307A1, “PYRIDAZINONE COMPOUND AND HERBICIDE” (NISSAN CHEMICAL CORPORATION, priority 2019, published 2023).

How the values were obtained:
[1] = system: Chinese sprangletop; test: Test Example 3: herbicidal effect by foliage application, Wagner pot (Table 18, symbol D); assay type: in vivo, chinese sprangletop (Leptochloa chinensis); conditions: amount of applied herbicide 320 g/ha
How it was run: (§1)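 Plants were sown in alluvial soil held under 0.1–0.5 cm standing water and grown 14 days in a greenhouse at 25–30 °C. An emulsifiable formulation, water-diluted to the set dose, was then sprayed onto the foliage, and effects were scored three weeks later using previously defined criteria.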

[2] = system: wild oat; test: Test Example 4: herbicidal effect by soil treatment (Table 19, symbol I); assay type: in vivo, wild oat (Avena fatua); conditions: amount of applied herbicide 320 g/ha
How it was run: (§2)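 Applied as a water-diluted emulsion, the compound was sprayed onto soil covering newly sown seeds. Evaluation came three weeks after application, in a greenhouse held at 25° C. to 30° C.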

[3] = system: windgrass; test: Test Example 4: herbicidal effect by soil treatment (Table 19, symbol L); assay type: in vivo, windgrass (Apera spica-venti); conditions: amount of applied herbicide 320 g/ha
How it was run: as §2

[4] = system: redroot pigweed; test: Test Example 4: herbicidal effect by soil treatment (Table 19, symbol N); assay type: in vivo, redroot pigweed (Amaranthus retroflexus); conditions: amount of applied herbicide 320 g/ha
How it was run: as §2

[5] = system: barnyard grass; test: Test Example 5: herbicidal effect by foliage application, plastic box (Table 20, symbol H); assay type: in vivo, barnyard grass (Echinochloa crus-galli); conditions: foliage application, 320 g/ha, three weeks after application
How it was run: (§3)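 Sow seeds spot-wise in sterilized diluvial soil; cover with ~1.5 cm soil. Grow 14 days in greenhouse, 25° C. to 30° C. Spray foliage with emulsion diluted to predetermined amount. Rate effect after 3 weeks.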

[6] = system: Italian ryegrass; test: Test Example 5: herbicidal effect by foliage application, plastic box (Table 20, symbol K); assay type: in vivo, Italian ryegrass (Lolium multiflorum); conditions: foliage application, 320 g/ha, three weeks after application
How it was run: as §3

[7] = system: blackgrass; test: Test Example 4: herbicidal effect by soil treatment (Table 19, symbol J); assay type: in vivo, blackgrass (Alopecurus myosuroides); conditions: amount of applied herbicide 320 g/ha
How it was run: as §2

[8] = system: chickweed; test: Test Example 5: herbicidal effect by foliage application, plastic box (Table 20, symbol P); assay type: in vivo, common chickweed (Stellaria media); conditions: foliage application, 320 g/ha, three weeks after application
How it was run: as §3

[9] = system: southern crabgrass; test: Test Example 4: herbicidal effect by soil treatment (Table 19, symbol F); assay type: in vivo, southern crabgrass (Digitaria ciliaris); conditions: amount of applied herbicide 320 g/ha
How it was run: as §2

[10] = system: rice flat sedge; test: Test Example 3: herbicidal effect by foliage application, Wagner pot (Table 18, symbol E); assay type: in vivo, rice flat sedge (Cyperus iria); conditions: amount of applied herbicide 320 g/ha
How it was run: as §1

[11] = system: velvetleaf; test: Test Example 4: herbicidal effect by soil treatment (Table 19, symbol M); assay type: in vivo, velvetleaf (Abutilon theophrasti); conditions: amount of applied herbicide 320 g/ha
How it was run: as §2

[12] = system: barnyard grass; test: Test Example 3: herbicidal effect by foliage application, Wagner pot (Table 18, symbol H); assay type: in vivo, barnyard grass (Echinochloa crus-galli); conditions: amount of applied herbicide 320 g/ha
How it was run: as §1

[13] = system: lambsquarters; test: Test Example 4: herbicidal effect by soil treatment (Table 19, symbol O); assay type: in vivo, lambsquarters (Chenopodium album); conditions: amount of applied herbicide 320 g/ha
How it was run: as §2

[14] = system: velvetleaf; test: Test Example 5: herbicidal effect by foliage application, plastic box (Table 20, symbol M); assay type: in vivo, velvetleaf (Abutilon theophrasti); conditions: foliage application, 320 g/ha, three weeks after application
How it was run: as §3

[15] = system: oval-leafed pondweed; test: Test Example 1: herbicidal activity, application before weed generation under submerged conditions (Table 16, symbol C); assay type: in vivo, oval-leafed pondweed (Monochoria vaginalis); conditions: amount of applied herbicide 320 g/ha
How it was run: (§4)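 Submerged Wagner pots (alluvial soil, 4 cm water) sown with weed seeds and planted with 2.5-leaf rice seedlings; emulsifiable concentrate diluted in water applied to water surface on sowing day. Held in greenhouse at 25-30 °C; injury scored 0-5 by herbicidal rate after three weeks.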

[16] = system: Italian ryegrass; test: Test Example 4: herbicidal effect by soil treatment (Table 19, symbol K); assay type: in vivo, Italian ryegrass (Lolium multiflorum); conditions: amount of applied herbicide 320 g/ha
How it was run: as §2

[17] = system: late watergrass; test: Test Example 1: herbicidal activity, application before weed generation under submerged conditions (Table 16, symbol A); assay type: in vivo, late watergrass (Echinochloa oryzicola); conditions: amount of applied herbicide 320 g/ha
How it was run: as §4

[18] = system: green foxtail; test: Test Example 5: herbicidal effect by foliage application, plastic box (Table 20, symbol G); assay type: in vivo, green foxtail (Setaria viridis); conditions: foliage application, 320 g/ha, three weeks after application
How it was run: as §3

[19] = system: southern crabgrass; test: Test Example 5: herbicidal effect by foliage application, plastic box (Table 20, symbol F); assay type: in vivo, southern crabgrass (Digitaria ciliaris); conditions: foliage application, 320 g/ha, three weeks after application
How it was run: as §3

[20] = system: persian speedwell; test: Test Example 5: herbicidal effect by foliage application, plastic box (Table 20, symbol R); assay type: in vivo, Persian speedwell (Veronica persica); conditions: foliage application, 320 g/ha, three weeks after application
How it was run: as §3

[21] = system: Japanese bulrush; test: Test Example 1: herbicidal activity, application before weed generation under submerged conditions (Table 16, symbol B); assay type: in vivo, Japanese bulrush (Schoenoplectus juncoides); conditions: amount of applied herbicide 320 g/ha
How it was run: as §4

[22] = system: redroot pigweed; test: Test Example 5: herbicidal effect by foliage application, plastic box (Table 20, symbol N); assay type: in vivo, redroot pigweed (Amaranthus retroflexus); conditions: foliage application, 320 g/ha, three weeks after application
How it was run: as §3

[23] = system: green foxtail; test: Test Example 4: herbicidal effect by soil treatment (Table 19, symbol G); assay type: in vivo, green foxtail (Setaria viridis); conditions: amount of applied herbicide 320 g/ha
How it was run: as §2

[24] = system: windgrass; test: Test Example 5: herbicidal effect by foliage application, plastic box (Table 20, symbol L); assay type: in vivo, windgrass (Apera spica-venti); conditions: foliage application, 320 g/ha, three weeks after application
How it was run: as §3

[25] = system: blackgrass; test: Test Example 5: herbicidal effect by foliage application, plastic box (Table 20, symbol J); assay type: in vivo, blackgrass (Alopecurus myosuroides); conditions: foliage application, 320 g/ha, three weeks after application
How it was run: as §3

[26] = system: wild oat; test: Test Example 5: herbicidal effect by foliage application, plastic box (Table 20, symbol I); assay type: in vivo, wild oat (Avena fatua); conditions: foliage application, 320 g/ha, three weeks after application
How it was run: as §3

[27] = system: false cleavers; test: Test Example 5: herbicidal effect by foliage application, plastic box (Table 20, symbol Q); assay type: in vivo, false cleavers (Galium spurium); conditions: foliage application, 320 g/ha, three weeks after application
How it was run: as §3

[28] = system: barnyard grass; test: Test Example 4: herbicidal effect by soil treatment (Table 19, symbol H); assay type: in vivo, barnyard grass (Echinochloa crus-galli); conditions: amount of applied herbicide 320 g/ha
How it was run: as §2

[29] = system: lambsquarters; test: Test Example 5: herbicidal effect by foliage application, plastic box (Table 20, symbol O); assay type: in vivo, lambsquarters (Chenopodium album); conditions: foliage application, 320 g/ha, three weeks after application
How it was run: as §3

[30] = system: chickweed; test: Test Example 4: herbicidal effect by soil treatment (Table 19, symbol P); assay type: in vivo, common chickweed (Stellaria media); conditions: amount of applied herbicide 320 g/ha
How it was run: as §2

[31] = system: persian speedwell; test: Test Example 4: herbicidal effect by soil treatment (Table 19, symbol R); assay type: in vivo, Persian speedwell (Veronica persica); conditions: amount of applied herbicide 320 g/ha
How it was run: as §2

## Cc1nn(C)c(=O)c(-c2c(-c3ccc(OC(C)C)cc3)sc3cc(F)ccc23)c1O [3-019]
[1]
  herbicidal effect on D: Chinese sprangletop: 0 (Herbicidal rate of 5% or less (almost no effect))
[2]
  herbicidal effect, I: wild oat: 0 (Herbicidal rate of 5% or less (almost no effect))
[3]
  herbicidal effect, L: windgrass: 0 (Herbicidal rate of 5% or less (almost no effect))
[4]
  herbicidal effect, N: redroot pigweed: 3 (Herbicidal rate of 40% or more and less than 70%)
[5]
  H: barnyard grass, herbicidal effect grade: 3 (Herbicidal rate of 40% or more and less than 70%)
[6]
  K: Italian ryegrass, herbicidal effect grade: 3 (Herbicidal rate of 40% or more and less than 70%)
[7]
  herbicidal effect, J: blackgrass: 0 (Herbicidal rate of 5% or less (almost no effect))
[8]
  P: chickweed, herbicidal effect grade: 5 (Herbicidal rate of 90% or more (almost completely withered))
[9]
  herbicidal effect, F: southern crabgrass: 0 (Herbicidal rate of 5% or less (almost no effect))
[10]
  herbicidal effect on E: rice flat sedge: 3 (Herbicidal rate of 40% or more and less than 70%)
[11]
  herbicidal effect, M: velvetleaf: 0 (Herbicidal rate of 5% or less (almost no effect))
[12]
  herbicidal effect on H: barnyard grass: 3 (Herbicidal rate of 40% or more and less than 70%)
[13]
  herbicidal effect, O: lambsquarters: 3 (Herbicidal rate of 40% or more and less than 70%)
[14]
  M: velvetleaf, herbicidal effect grade: 3 (Herbicidal rate of 40% or more and less than 70%)
[15]
  Herbicidal effect, C: oval-leafed pondweed: 3 (Herbicidal rate of 40% or more and less than 70%)
[16]
  herbicidal effect, K: Italian ryegrass: 0 (Herbicidal rate of 5% or less (almost no effect))
[17]
  Herbicidal effect, A: late watergrass: 3 (Herbicidal rate of 40% or more and less than 70%)
[18]
  G: green foxtail, herbicidal effect grade: 4 (Herbicidal rate of 70% or more and less than 90%)
[19]
  F: southern crabgrass, herbicidal effect grade: 0 (Herbicidal rate of 5% or less (almost no effect))
[20]
  R: persian speedwell, herbicidal effect grade: 5 (Herbicidal rate of 90% or more (almost completely withered))
[21]
  Herbicidal effect, B: Japanese bulrush: 3 (Herbicidal rate of 40% or more and less than 70%)
[22]
  N: redroot pigweed, herbicidal effect grade: 5 (Herbicidal rate of 90% or more (almost completely withered))
[23]
  herbicidal effect, G: green foxtail: 2 (Herbicidal rate of 20% or more and less than 40%)
[24]
  L: windgrass, herbicidal effect grade: 3 (Herbicidal rate of 40% or more and less than 70%)
[25]
  J: blackgrass, herbicidal effect grade: 3 (Herbicidal rate of 40% or more and less than 70%)
[26]
  I: wild oat, herbicidal effect grade: 0 (Herbicidal rate of 5% or less (almost no effect))
[27]
  Q: false cleavers, herbicidal effect grade: 4 (Herbicidal rate of 70% or more and less than 90%)
[28]
  herbicidal effect, H: barnyard grass: 0 (Herbicidal rate of 5% or less (almost no effect))
[29]
  O: lambsquarters, herbicidal effect grade: 0 (Herbicidal rate of 5% or less (almost no effect))
[30]
  herbicidal effect, P: chickweed: 0 (Herbicidal rate of 5% or less (almost no effect))

## CCOc1cc(F)ccc1-c1oc2ccc(C)cc2c1-c1c(O)c(C)nn(C)c1=O [9-011]
[1]
  Herbicidal effect on D (Chinese sprangletop), foliage application: 0 (Herbicidal rate of 5% or less (almost no effect))
[2]
  I: wild oat, herbicidal effect grade: 0 (Herbicidal rate of 5% or less (almost no effect))
[3]
  L: windgrass, herbicidal effect grade: 3 (Herbicidal rate of 40% or more and less than 70%)
[4]
  N: redroot pigweed, herbicidal effect grade: 3 (Herbicidal rate of 40% or more and less than 70%)
[5]
  herbicidal effect on barnyard grass (H): 4 (Herbicidal rate of 70% or more and less than 90%)
[6]
  herbicidal effect on Italian ryegrass (K): 0 (Herbicidal rate of 5% or less (almost no effect))
[7]
  J: blackgrass, herbicidal effect grade: 2 (Herbicidal rate of 20% or more and less than 40%)
[9]
  F: southern crabgrass, herbicidal effect grade: 2 (Herbicidal rate of 20% or more and less than 40%)
[31]
  R: persian speedwell, herbicidal effect grade: 3 (Herbicidal rate of 40% or more and less than 70%)
[10]
  Herbicidal effect on E (rice flat sedge), foliage application: 4 (Herbicidal rate of 70% or more and less than 90%)
[11]
  M: velvetleaf, herbicidal effect grade: 0 (Herbicidal rate of 5% or less (almost no effect))
[12]
  Herbicidal effect on H (barnyard grass), foliage application: 5 (Herbicidal rate of 90% or more (almost completely withered))
[13]
  O: lambsquarters, herbicidal effect grade: 4 (Herbicidal rate of 70% or more and less than 90%)
[14]
  herbicidal effect on velvetleaf (M): 3 (Herbicidal rate of 40% or more and less than 70%)
[15]
  Herbicidal effect, C: oval-leafed pondweed: 1 (Herbicidal rate of 5% or more and less than 20%)
[16]
  K: Italian ryegrass, herbicidal effect grade: 0 (Herbicidal rate of 5% or less (almost no effect))
[17]
  Herbicidal effect, A: late watergrass: 3 (Herbicidal rate of 40% or more and less than 70%)
[18]
  herbicidal effect on green foxtail (G): 2 (Herbicidal rate of 20% or more and less than 40%)
[19]
  herbicidal effect on southern crabgrass (F): 2 (Herbicidal rate of 20% or more and less than 40%)
[20]
  herbicidal effect on persian speedwell (R): 4 (Herbicidal rate of 70% or more and less than 90%)
[21]
  Herbicidal effect, B: Japanese bulrush: 2 (Herbicidal rate of 20% or more and less than 40%)
[23]
  G: green foxtail, herbicidal effect grade: 0 (Herbicidal rate of 5% or less (almost no effect))
[24]
  herbicidal effect on windgrass (L): 1 (Herbicidal rate of 5% or more and less than 20%)
[25]
  herbicidal effect on blackgrass (J): 4 (Herbicidal rate of 70% or more and less than 90%)
[26]
  herbicidal effect on wild oat (I): 3 (Herbicidal rate of 40% or more and less than 70%)
[27]
  herbicidal effect on false cleavers (Q): 4 (Herbicidal rate of 70% or more and less than 90%)
[28]
  H: barnyard grass, herbicidal effect grade: 0 (Herbicidal rate of 5% or less (almost no effect))
[29]
  herbicidal effect on lambsquarters (O): 4 (Herbicidal rate of 70% or more and less than 90%)
[30]
  P: chickweed, herbicidal effect grade: 1 (Herbicidal rate of 5% or more and less than 20%)
